Reference: the kinase profiling compilation of Christmann-Franck et al. (2016)

Legend:
Test in all cases: radiometric filter-binding kinase assay, Kinaseprofiler
[1] = system: SGK2 (human), Q9HBY8 [S416D]; conditions: ATP 15 µM
STK3 (human) = STK3 (human) (UniProt Q13188); conditions: ATP 155 µM
SRPK3 (human) = SRPK3 (human) (UniProt Q9UPE1); conditions: ATP 15 µM
CAMK2D (human) = CAMK2D (human) (UniProt Q13557); conditions: ATP 10 µM
RPS6KA3 KD1 KD2 (human) = RPS6KA3 KD1 KD2 (human) (UniProt P51812); conditions: ATP 10 µM
Chain of RPS6KA3 KD1 KD2 (human) (P51812 whole entry, looked up): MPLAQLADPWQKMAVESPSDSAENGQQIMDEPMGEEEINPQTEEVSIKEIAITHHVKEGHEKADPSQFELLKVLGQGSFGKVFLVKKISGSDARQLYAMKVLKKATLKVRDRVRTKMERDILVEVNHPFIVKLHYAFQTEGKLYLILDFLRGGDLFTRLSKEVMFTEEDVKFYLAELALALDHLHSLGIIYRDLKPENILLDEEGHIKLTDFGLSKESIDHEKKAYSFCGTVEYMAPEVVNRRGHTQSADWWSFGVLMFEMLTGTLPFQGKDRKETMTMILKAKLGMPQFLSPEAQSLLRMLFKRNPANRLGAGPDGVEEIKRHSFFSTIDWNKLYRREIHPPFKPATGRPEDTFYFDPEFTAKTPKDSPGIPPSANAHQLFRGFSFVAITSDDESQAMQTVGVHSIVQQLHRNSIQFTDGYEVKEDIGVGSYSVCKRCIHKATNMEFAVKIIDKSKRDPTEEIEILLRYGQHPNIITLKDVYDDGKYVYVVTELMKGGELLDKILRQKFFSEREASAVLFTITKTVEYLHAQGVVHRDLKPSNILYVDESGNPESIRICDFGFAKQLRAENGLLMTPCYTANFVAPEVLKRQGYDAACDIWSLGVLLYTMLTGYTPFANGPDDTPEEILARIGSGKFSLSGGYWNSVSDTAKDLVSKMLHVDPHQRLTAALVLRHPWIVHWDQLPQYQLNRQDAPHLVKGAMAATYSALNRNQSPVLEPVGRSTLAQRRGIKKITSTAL

FGFR1 (human) = FGFR1 (human) (UniProt P11362); conditions: ATP 200 µM
EPHA7 (human) = EPHA7 (human) (UniProt Q15375); conditions: ATP 90 µM
PRKCE (human) = PRKCE (human) (UniProt Q02156); conditions: ATP 45 µM
CHUK (human) = CHUK (human) (UniProt O15111); conditions: ATP 10 µM
PIM3 (human) = PIM3 (human) (UniProt Q86V86); conditions: ATP 155 µM
PRKACA (human) = PRKACA (human) (UniProt P17612); conditions: ATP 10 µM
PRKX (human) = PRKX (human) (UniProt P51817); conditions: ATP 200 µM
EPHA8 (human) = EPHA8 (human) (UniProt P29322); conditions: ATP 200 µM
PLK3 (human) = PLK3 (human) (UniProt Q9H4B4); conditions: ATP 70 µM
HIPK3 (human) = HIPK3 (human) (UniProt Q9H422); conditions: ATP 15 µM
ACVR1B (human) = ACVR1B (human) (UniProt P36896); conditions: ATP 10 µM
PAK3 (human) = PAK3 (human) (UniProt O75914); conditions: ATP 120 µM
PRKCG (human) = PRKCG (human) (UniProt P05129); conditions: ATP 15 µM
NEK3 (human) = NEK3 (human) (UniProt P51956); conditions: ATP 120 µM
FLT1 (human) = FLT1 (human) (UniProt P17948); conditions: ATP 200 µM
SRPK2 (human) = SRPK2 (human) (UniProt P78362); conditions: ATP 10 µM
INSRR (human) = INSRR (human) (UniProt P14616); conditions: ATP 200 µM
Chain of INSRR (human) (P14616 whole entry, looked up): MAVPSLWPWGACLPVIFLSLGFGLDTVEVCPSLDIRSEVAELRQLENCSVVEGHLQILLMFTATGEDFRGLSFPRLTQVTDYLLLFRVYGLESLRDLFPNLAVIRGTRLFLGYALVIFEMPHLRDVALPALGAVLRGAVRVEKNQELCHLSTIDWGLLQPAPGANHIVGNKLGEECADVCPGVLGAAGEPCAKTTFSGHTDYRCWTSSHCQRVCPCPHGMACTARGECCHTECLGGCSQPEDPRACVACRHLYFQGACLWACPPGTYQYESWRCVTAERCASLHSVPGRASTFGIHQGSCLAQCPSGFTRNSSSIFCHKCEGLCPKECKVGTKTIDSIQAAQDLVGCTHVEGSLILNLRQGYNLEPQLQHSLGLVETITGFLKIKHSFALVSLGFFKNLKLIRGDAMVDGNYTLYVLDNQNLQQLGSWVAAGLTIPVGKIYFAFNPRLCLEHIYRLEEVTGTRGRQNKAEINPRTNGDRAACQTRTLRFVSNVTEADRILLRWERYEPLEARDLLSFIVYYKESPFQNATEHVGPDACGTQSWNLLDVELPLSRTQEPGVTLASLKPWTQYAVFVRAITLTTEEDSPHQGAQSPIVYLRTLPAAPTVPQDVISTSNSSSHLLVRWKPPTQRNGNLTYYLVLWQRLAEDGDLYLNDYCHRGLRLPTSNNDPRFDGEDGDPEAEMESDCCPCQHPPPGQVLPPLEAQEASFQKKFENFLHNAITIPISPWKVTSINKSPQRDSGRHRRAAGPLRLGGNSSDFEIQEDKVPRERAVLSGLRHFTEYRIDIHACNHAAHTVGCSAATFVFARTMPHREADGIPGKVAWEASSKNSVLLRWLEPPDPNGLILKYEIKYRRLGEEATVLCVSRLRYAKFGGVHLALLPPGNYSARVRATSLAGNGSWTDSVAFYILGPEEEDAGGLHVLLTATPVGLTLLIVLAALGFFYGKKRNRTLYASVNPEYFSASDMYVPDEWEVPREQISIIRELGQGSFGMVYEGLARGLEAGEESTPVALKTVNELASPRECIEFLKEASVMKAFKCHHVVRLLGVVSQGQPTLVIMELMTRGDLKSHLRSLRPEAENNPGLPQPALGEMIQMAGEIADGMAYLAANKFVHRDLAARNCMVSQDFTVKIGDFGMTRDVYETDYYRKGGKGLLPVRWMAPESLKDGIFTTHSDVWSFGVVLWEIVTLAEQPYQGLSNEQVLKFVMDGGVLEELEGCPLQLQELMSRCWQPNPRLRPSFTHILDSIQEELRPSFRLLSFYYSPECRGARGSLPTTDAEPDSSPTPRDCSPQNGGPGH

FYN (human) = FYN (human) (UniProt P06241); conditions: ATP 70 µM
GRK7 (human) = GRK7 (human) (UniProt Q8WTQ7); conditions: ATP 15 µM
CHEK2 (human) = CHEK2 (human) (UniProt O96017); conditions: ATP 70 µM
EPHA5 (human) = EPHA5 (human) (UniProt P54756); conditions: ATP 10 µM
STK11 (human) = STK11 (human) (UniProt Q15831); conditions: ATP 155 µM
MKNK2 (human) = MKNK2 (human) (UniProt Q9HBH9); conditions: ATP 120 µM
[2] = target: PRKAA1 PRKAB1 PRKAG1 (human) (UniProt P54619+Q13131+Q9Y478); conditions: ATP 45 µM
Chain of PRKAA1 PRKAB1 PRKAG1 (human) (P54619 whole entry, looked up): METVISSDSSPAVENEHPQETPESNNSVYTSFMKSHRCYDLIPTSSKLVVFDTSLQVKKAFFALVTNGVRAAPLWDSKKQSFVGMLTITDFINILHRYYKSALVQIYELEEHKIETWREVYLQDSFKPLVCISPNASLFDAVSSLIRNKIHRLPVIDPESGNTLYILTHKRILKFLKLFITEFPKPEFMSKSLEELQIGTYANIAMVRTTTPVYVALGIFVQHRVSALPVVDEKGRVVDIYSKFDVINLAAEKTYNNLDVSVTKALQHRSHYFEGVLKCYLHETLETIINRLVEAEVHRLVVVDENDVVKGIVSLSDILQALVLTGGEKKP
Chain of PRKAA1 PRKAB1 PRKAG1 (human) (Q13131 whole entry, looked up): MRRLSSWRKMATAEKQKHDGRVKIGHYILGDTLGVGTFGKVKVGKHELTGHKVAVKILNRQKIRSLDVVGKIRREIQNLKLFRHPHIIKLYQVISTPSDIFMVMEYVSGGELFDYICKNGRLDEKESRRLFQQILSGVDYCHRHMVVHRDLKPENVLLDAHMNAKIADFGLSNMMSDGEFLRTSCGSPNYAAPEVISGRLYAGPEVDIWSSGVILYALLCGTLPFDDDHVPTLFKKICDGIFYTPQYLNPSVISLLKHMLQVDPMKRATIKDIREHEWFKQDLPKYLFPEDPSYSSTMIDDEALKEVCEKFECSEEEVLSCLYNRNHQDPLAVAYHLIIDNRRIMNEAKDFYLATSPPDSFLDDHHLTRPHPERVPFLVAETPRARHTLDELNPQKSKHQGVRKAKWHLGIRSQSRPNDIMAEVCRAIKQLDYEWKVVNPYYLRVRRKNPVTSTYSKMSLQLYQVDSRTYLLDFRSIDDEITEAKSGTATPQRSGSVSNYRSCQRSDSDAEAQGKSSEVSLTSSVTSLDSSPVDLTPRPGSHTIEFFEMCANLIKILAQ
Chain of PRKAA1 PRKAB1 PRKAG1 (human) (Q9Y478 whole entry, looked up): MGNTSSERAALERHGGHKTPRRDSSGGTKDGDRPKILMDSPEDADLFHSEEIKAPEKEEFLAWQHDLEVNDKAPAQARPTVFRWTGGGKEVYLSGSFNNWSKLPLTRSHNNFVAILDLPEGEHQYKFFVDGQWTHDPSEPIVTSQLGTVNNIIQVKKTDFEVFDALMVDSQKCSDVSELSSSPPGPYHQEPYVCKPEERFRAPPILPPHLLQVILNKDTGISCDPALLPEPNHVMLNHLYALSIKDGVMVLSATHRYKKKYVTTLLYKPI

NEK6 (human) = NEK6 (human) (UniProt Q9HC98); conditions: ATP 45 µM
Chain of NEK6 (human) (Q9HC98 whole entry, looked up): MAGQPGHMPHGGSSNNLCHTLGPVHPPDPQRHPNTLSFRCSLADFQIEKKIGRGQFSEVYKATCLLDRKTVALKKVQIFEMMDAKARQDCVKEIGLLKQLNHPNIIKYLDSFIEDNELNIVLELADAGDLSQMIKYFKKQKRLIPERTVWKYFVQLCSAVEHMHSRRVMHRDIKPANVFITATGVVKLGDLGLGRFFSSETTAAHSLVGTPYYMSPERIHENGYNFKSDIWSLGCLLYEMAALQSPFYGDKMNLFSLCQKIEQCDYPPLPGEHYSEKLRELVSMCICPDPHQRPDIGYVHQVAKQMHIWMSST

RPS6KA2 KD1 KD2 (human) = RPS6KA2 KD1 KD2 (human) (UniProt Q15349); conditions: ATP 10 µM
EPHA3 (human) = EPHA3 (human) (UniProt P29320); conditions: ATP 120 µM
FGFR2 (human) = FGFR2 (human) (UniProt P21802); conditions: ATP 90 µM

Chain of SRPK3 (human) (Q9UPE1 whole entry, looked up): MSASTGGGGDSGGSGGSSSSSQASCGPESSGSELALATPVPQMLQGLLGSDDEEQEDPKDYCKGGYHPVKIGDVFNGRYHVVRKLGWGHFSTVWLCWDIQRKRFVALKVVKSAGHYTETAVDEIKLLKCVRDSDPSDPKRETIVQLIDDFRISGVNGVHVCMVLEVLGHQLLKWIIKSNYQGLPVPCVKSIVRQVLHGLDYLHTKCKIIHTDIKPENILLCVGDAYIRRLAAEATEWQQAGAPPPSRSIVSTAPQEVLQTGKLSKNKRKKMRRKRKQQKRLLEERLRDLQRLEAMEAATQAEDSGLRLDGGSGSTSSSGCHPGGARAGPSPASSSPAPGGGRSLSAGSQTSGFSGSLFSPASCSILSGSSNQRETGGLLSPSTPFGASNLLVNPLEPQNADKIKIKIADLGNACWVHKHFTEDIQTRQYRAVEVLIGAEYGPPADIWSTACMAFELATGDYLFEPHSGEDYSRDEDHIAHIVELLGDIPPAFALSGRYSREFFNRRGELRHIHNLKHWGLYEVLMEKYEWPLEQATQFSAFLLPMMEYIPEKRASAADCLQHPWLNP

SMILES: O=C1c2ccccc2-c2n[nH]c3cccc1c23
- residual activity ([1]; compound 1.0 µM): 71%
- residual activity ([1]; compound 10.0 µM): 33%
- residual activity (STK3 (human); compound 1.0 µM): 16%
- residual activity (STK3 (human); compound 10.0 µM): 10%
- residual activity (SRPK3 (human); compound 1.0 µM): 90%
- residual activity (SRPK3 (human); compound 10.0 µM): 82%
- residual activity (CAMK2D (human); compound 1.0 µM): 43%
- residual activity (CAMK2D (human); compound 10.0 µM): 8%
- residual activity (RPS6KA3 KD1 KD2 (human); compound 1.0 µM): 54%
- residual activity (RPS6KA3 KD1 KD2 (human); compound 10.0 µM): 32%
- residual activity (FGFR1 (human); compound 1.0 µM): 39%
- residual activity (FGFR1 (human); compound 10.0 µM): 4%
- residual activity (EPHA7 (human); compound 1.0 µM): 80%
- residual activity (EPHA7 (human); compound 10.0 µM): 41%
- residual activity (PRKCE (human); compound 1.0 µM): 101%
- residual activity (PRKCE (human); compound 10.0 µM): 84%
- residual activity (CHUK (human); compound 1.0 µM): 57%
- residual activity (CHUK (human); compound 10.0 µM): 21%
- residual activity (PIM3 (human); compound 1.0 µM): 75%
- residual activity (PIM3 (human); compound 10.0 µM): 59%
- residual activity (PRKACA (human); compound 1.0 µM): 89%
- residual activity (PRKACA (human); compound 10.0 µM): 73%
- residual activity (PRKX (human); compound 1.0 µM): 86%
- residual activity (PRKX (human); compound 10.0 µM): 70%
- residual activity (EPHA8 (human); compound 1.0 µM): 92%
- residual activity (EPHA8 (human); compound 10.0 µM): 76%
- residual activity (PLK3 (human); compound 1.0 µM): 94%
- residual activity (PLK3 (human); compound 10.0 µM): 82%
- residual activity (HIPK3 (human); compound 1.0 µM): 73%
- residual activity (HIPK3 (human); compound 10.0 µM): 19%
- residual activity (ACVR1B (human); compound 1.0 µM): 86%
- residual activity (ACVR1B (human); compound 10.0 µM): 84%
- residual activity (PAK3 (human); compound 1.0 µM): 85%
- residual activity (PAK3 (human); compound 10.0 µM): 96%
- residual activity (PRKCG (human); compound 1.0 µM): 73%
- residual activity (PRKCG (human); compound 10.0 µM): 30%
- residual activity (NEK3 (human); compound 1.0 µM): 70%
- residual activity (NEK3 (human); compound 10.0 µM): 79%
- residual activity (FLT1 (human); compound 1.0 µM): 26%
- residual activity (FLT1 (human); compound 10.0 µM): 2%
- residual activity (SRPK2 (human); compound 1.0 µM): 97%
- residual activity (SRPK2 (human); compound 10.0 µM): 57%
- residual activity (INSRR (human); compound 1.0 µM): 102%
- residual activity (INSRR (human); compound 10.0 µM): 51%
- residual activity (FYN (human); compound 1.0 µM): 60%
- residual activity (FYN (human); compound 10.0 µM): 47%
- residual activity (GRK7 (human); compound 1.0 µM): 71%
- residual activity (GRK7 (human); compound 10.0 µM): 27%
- residual activity (CHEK2 (human); compound 1.0 µM): 29%
- residual activity (CHEK2 (human); compound 10.0 µM): 2%
- residual activity (EPHA5 (human); compound 1.0 µM): 115%
- residual activity (EPHA5 (human); compound 10.0 µM): 63%
- residual activity (STK11 (human); compound 1.0 µM): 75%
- residual activity (STK11 (human); compound 10.0 µM): 41%
- residual activity (MKNK2 (human); compound 1.0 µM): 43%
- residual activity (MKNK2 (human); compound 10.0 µM): 10%
- residual activity ([2]; compound 1.0 µM): 64%
- residual activity ([2]; compound 10.0 µM): 24%
- residual activity (NEK6 (human); compound 1.0 µM): 107%
- residual activity (NEK6 (human); compound 10.0 µM): 101%
- residual activity (RPS6KA2 KD1 KD2 (human); compound 1.0 µM): 58%
- residual activity (RPS6KA2 KD1 KD2 (human); compound 10.0 µM): 22%
- residual activity (EPHA3 (human); compound 1.0 µM): 75%
- residual activity (EPHA3 (human); compound 10.0 µM): 48%
- residual activity (FGFR2 (human); compound 1.0 µM): 52%
- residual activity (FGFR2 (human); compound 10.0 µM): 12%
